From the NIST ThermoML archive (doi:10.1021/acs.jced.8b00358)

Assays:
[1] = molar heat capacity at constant pressure; conditions: 83 kPa, Liquid, DSC
[2] = 83 kPa, Liquid; for speed of sound: Frequency=3 MHz, Single path-length method; for mass density: Vibrating tube method

CCCCCCCCC(=O)OCC(COC(=O)CCCCCCCC)(COC(=O)CCCCCCCC)COC(=O)CCCCCCCC [pentaerythritol tetranonanoate]
Conditions | mass density [kg/m3] | molar heat capacity at constant pressure [J/K/mol] | speed of sound [m/s]
[1], 313.13 K | – | 1352.3 | –
[1], 314.13 K | – | 1354.3 | –
[1], 315.14 K | – | 1355.7 | –
[1], 316.13 K | – | 1357.8 | –
[1], 317.14 K | – | 1359.9 | –
[1], 318.13 K | – | 1362 | –
[1], 319.13 K | – | 1363.4 | –
[1], 320.14 K | – | 1365.5 | –
[1], 321.13 K | – | 1367.6 | –
[1], 322.13 K | – | 1369 | –
[1], 323.14 K | – | 1371.1 | –
[1], 324.13 K | – | 1373.2 | –
[1], 325.13 K | – | 1374.6 | –
[1], 326.13 K | – | 1376.6 | –
[1], 327.13 K | – | 1378.7 | –
[1], 328.14 K | – | 1380.8 | –
[1], 329.14 K | – | 1382.9 | –
[1], 330.13 K | – | 1384.3 | –
[1], 331.13 K | – | 1386.4 | –
[1], 332.13 K | – | 1388.5 | –
[1], 333.13 K | – | 1390.6 | –
[1], 334.13 K | – | 1392.7 | –
[1], 335.13 K | – | 1394.8 | –
[1], 336.14 K | – | 1396.9 | –
[1], 337.13 K | – | 1399 | –
[1], 338.13 K | – | 1401 | –
[1], 339.13 K | – | 1403.1 | –
[1], 340.13 K | – | 1405.2 | –
[1], 341.14 K | – | 1406.6 | –
[1], 342.14 K | – | 1408.7 | –
[1], 343.13 K | – | 1410.8 | –
[1], 344.13 K | – | 1412.9 | –
[1], 345.14 K | – | 1415 | –
[1], 346.13 K | – | 1417.1 | –
[1], 347.13 K | – | 1419.2 | –
[1], 348.13 K | – | 1421.3 | –
[1], 349.13 K | – | 1423.4 | –
[1], 350.14 K | – | 1425.4 | –
[1], 351.13 K | – | 1427.5 | –
[1], 352.13 K | – | 1429.6 | –
[1], 353.14 K | – | 1431.7 | –
[1], 354.13 K | – | 1433.8 | –
[1], 355.14 K | – | 1435.9 | –
[1], 356.13 K | – | 1438 | –
[1], 357.13 K | – | 1440.1 | –
[1], 358.13 K | – | 1442.2 | –
[1], 359.13 K | – | 1444.3 | –
[1], 360.13 K | – | 1446.4 | –
[1], 361.13 K | – | 1448.4 | –
[1], 362.13 K | – | 1450.5 | –
[1], 363.13 K | – | 1452.6 | –
[1], 364.13 K | – | 1454.7 | –
[1], 365.13 K | – | 1456.8 | –
[1], 366.13 K | – | 1458.9 | –
[1], 367.13 K | – | 1461 | –
[1], 368.13 K | – | 1463.1 | –
[1], 369.13 K | – | 1465.2 | –
[1], 370.13 K | – | 1467.3 | –
[1], 371.13 K | – | 1469.4 | –
[1], 372.13 K | – | 1471.4 | –
[1], 373.13 K | – | 1473.5 | –
[1], 374.14 K | – | 1475.6 | –
[1], 375.14 K | – | 1477.7 | –
[1], 376.13 K | – | 1479.8 | –
[1], 377.13 K | – | 1481.9 | –
[1], 378.13 K | – | 1484 | –
[1], 379.13 K | – | 1486.1 | –
[1], 380.14 K | – | 1488.2 | –
[1], 381.13 K | – | 1491 | –
[1], 382.13 K | – | 1493.1 | –
[1], 383.13 K | – | 1495.1 | –
[1], 384.13 K | – | 1497.2 | –
[1], 385.13 K | – | 1499.3 | –
[1], 386.13 K | – | 1501.4 | –
[1], 387.13 K | – | 1503.5 | –
[1], 388.13 K | – | 1505.6 | –
[1], 389.13 K | – | 1507.7 | –
[1], 390.13 K | – | 1509.8 | –
[1], 391.13 K | – | 1511.9 | –
[1], 392.13 K | – | 1514 | –
[1], 393.13 K | – | 1516.1 | –
[1], 394.13 K | – | 1518.1 | –
[1], 395.14 K | – | 1520.2 | –
[1], 396.13 K | – | 1523 | –
[1], 397.13 K | – | 1525.1 | –
[1], 398.13 K | – | 1527.2 | –
[1], 399.13 K | – | 1529.3 | –
[1], 400.13 K | – | 1531.4 | –
[1], 401.13 K | – | 1533.5 | –
[1], 402.14 K | – | 1535.6 | –
[1], 403.13 K | – | 1537.7 | –
[1], 404.14 K | – | 1539.8 | –
[1], 405.13 K | – | 1541.8 | –
[1], 406.13 K | – | 1543.9 | –
[1], 407.13 K | – | 1546 | –
[1], 408.13 K | – | 1548.1 | –
[1], 409.13 K | – | 1550.9 | –
[1], 410.14 K | – | 1553 | –
[1], 411.13 K | – | 1554.4 | –
[1], 412.14 K | – | 1557.2 | –
[2], 283.15 K | 961.49 | – | 1438.9
[2], 288.15 K | 957.85 | – | 1421.7
[2], 293.15 K | 954.2 | – | 1404.7
[2], 298.15 K | 950.58 | – | 1387.9
[2], 303.15 K | 946.97 | – | 1371.5
[2], 308.15 K | 943.37 | – | 1355.2
[2], 313.15 K | 939.77 | – | 1339.1
[2], 318.15 K | 936.18 | – | 1323.2
[2], 323.15 K | 932.6 | – | 1307.5
[2], 328.15 K | 929.02 | – | 1292
[2], 333.15 K | 925.45 | – | 1276.6
[2], 338.15 K | 921.88 | – | 1261.4
[2], 343.15 K | 918.32 | – | 1246.4
